Values after ≈ are worked out from the molar mass of the structure shown.
What was measured:
physchem = test: physchem
Protocol: The solubility of glibenclamide was tested in various solutions and at various pH.

[1] = Glibenclamide solubility at various pH in PEG 300/ethanol/meglumine buffer (Table 2, FIG. 1); format: physicochemical; settings: for solubility: aqueous with cosolvent or surfactant or cyclodextrin
Protocol: The solubility of glibenclamide was measured at various pH levels in the presence of different amounts of the buffer meglumine in solutions containing 40% PEG 300, 10% ethanol, and 50% water. […] The pH of the meglumine buffer was adjusted down from pH 11 to the target pH range of between about pH 8 to about pH 10.

[2] = Glibenclamide solubility in infusion fluids by HPLC, excess drug shaken 24 hours (Table 4); format: physicochemical; settings: thermodynamic from solid, 24 hours ambient
Protocol: The solubility of glibenclamide was determined by high pressure liquid chromatography (HPLC) in a variety of infusion fluids. Excess glibenclamide was shaken with the vehicle for 24 hours at ambient temperature and the glibenclamide content of the supernatant determined by HPLC.
The following infusion vehicles were assessed in these experiments:
1.) 0.9% NaCl at the lowest end of the pH specification (pH 4.5) containing a 50-fold dilution of the PEG/ethanol/meglumine 10 mM pH 9.0 formulation.
2.) 0.9% NaCl at the lowest end of the pH specification (pH 4.5) containing a 50-fold dilution of the PEG/ethanol/diethanolamine 10 mM pH 9.0 formulation.
3.) 0.9% NaCl at the lowest end of the pH specification (pH 4.5) containing a 50-fold dilution of the PEG/ethanol/TRIS 10 mM pH 9.0 formulation.
4.) 0.9% NaCl at the lowest end of the pH specification (pH 4.5).
5.) 0.9% NaCl at the highest end of the pH specification (pH 7.0).
6.) 0.9% NaCl ‘as is’ (pH 5.8).
7.) 0.9% NaCl at the lowest end of the pH specification (pH 4.5) containing a 50-fold dilution of the PEG/ethanol formulation (without buffer or pH adjustment).
8.) 0.9% NaCl at the highest end of the pH specification (pH 7.0) containing a 50-fold dilution of the PEG/ethanol formulation (without buffer or pH adjustment).

`COc1ccc(Cl)cc1C(=O)NCCc1ccc(S(=O)(=O)NC(=O)NC2CCCCC2)cc1` [Glibenclamide, N-p-(2-[5-Chloro-2-methoxybenzamido]ethyl) benzenesulfonyl-N′-cyclohexylurea] gave a solubility (physchem; pH 5.3, aqueous buffer, Solubility) of 10 µg/mL (≈ 20.2 µM), a solubility (physchem; pH 6.2, aqueous buffer, Solubility) of 10 µg/mL (≈ 20.2 µM) and a solubility (physchem; pH 6.6, water, Solubility) of 70 µg/mL (≈ 142 µM). It also gave a solubility (physchem; pH 6.9) of 60 µg/mL (≈ 121 µM), a solubility (physchem; pH 6.9, aqueous with cosolvent or surfactant or cyclodextrin, Solubility) of 90 µg/mL (≈ 182 µM) and a solubility (physchem; pH 7.1, aqueous buffer, Solubility) of 10 µg/mL (≈ 20.2 µM). It also gave a solubility (physchem; pH 7.2, aqueous with cosolvent or surfactant or cyclodextrin, Solubility) of 80 µg/mL (≈ 162 µM), a solubility (physchem; pH 7.6, aqueous with cosolvent or surfactant or cyclodextrin, Solubility) of 600 µg/mL (≈ 1210 µM) and a solubility (physchem; pH 7.7, aqueous with cosolvent or surfactant or cyclodextrin, Solubility) of 10 µg/mL (≈ 20.2 µM). It also gave a solubility (physchem; pH 9.7) of 860 µg/mL (≈ 1740 µM), a solubility (physchem; pH 9.7, aqueous buffer, Solubility) of 860 µg/mL (≈ 1740 µM) and a solubility (physchem; pH 9.7, aqueous with cosolvent or surfactant or cyclodextrin, Solubility) of 18300 µg/mL (≈ 37000 µM). It also gave a solubility (physchem; pH 9.8) of 11200 µg/mL (≈ 22700 µM), a solubility (physchem; pH 9.8, aqueous with cosolvent or surfactant or cyclodextrin, Solubility) of 14600 µg/mL (≈ 29700 µM) and a solubility (physchem; pH 10.1) of 2350 µg/mL (≈ 4760 µM). The solubility (physchem; pH 10.1, aqueous buffer, Solubility) was 2350 µg/mL (≈ 4760 µM), the solubility (physchem; pH 10.5) was 15650 µg/mL (≈ 31700 µM) and the solubility (physchem; pH 10.5, aqueous with cosolvent or surfactant or cyclodextrin, Solubility) was 13400 µg/mL (≈ 27200 µM). The solubility (physchem; pH 10.7, aqueous buffer, Solubility) was 8120 µg/mL (≈ 16400 µM), the solubility (physchem; pH 10.7, aqueous with cosolvent or surfactant or cyclodextrin, Solubility) was 13900 µg/mL (≈ 28200 µM) and the “solubility change with pH (FIG. 1)” value ([1]; 40% PEG 300, 10% ethanol, 50% water, meglumine buffer, basic pH values greater than about pH 8) was “greatly increased”. For the same compound, the solubility ([1]; PEG 300/ethanol/meglumine buffer solution, PEG 300/Ethanol/20 mM Meglumine 40%/10%/50% (final 10 mM), nominal pH 8.5, actual pH 5.4) was 100 µg/mL (≈ 202 µM), the solubility ([1]; PEG 300/ethanol/meglumine buffer solution, PEG 300/Ethanol/20 mM Meglumine 40%/10%/50% (final 10 mM), nominal pH 9.0, actual pH 5.6) was 130 µg/mL (≈ 263 µM) and the solubility ([1]; PEG 300/ethanol/meglumine buffer solution, PEG 300/Ethanol/20 mM Meglumine 40%/10%/50% (final 10 mM), nominal pH 9.5, actual pH 6.4) was 120 µg/mL (≈ 243 µM). The solubility ([1]; PEG 300/ethanol/meglumine buffer solution, PEG 300/Ethanol/100 mM Meglumine 40%/10%/50% (final 50 mM), nominal pH 9.5, actual pH 7.7) was 410 µg/mL (≈ 830 µM), the solubility ([1]; PEG 300/ethanol/meglumine buffer solution, PEG 300/Ethanol/100 mM Meglumine 40%/10%/50% (final 50 mM), nominal pH 10.0, actual pH 8.8) was 2740 µg/mL (≈ 5550 µM) and the solubility ([1]; 40% PEG 300, 10% ethanol, 50% water with meglumine buffer, nominal pH 9 (pH 8.8)) was 2700 µg/mL (≈ 5470 µM). For the same compound, the solubility ([1]; PEG 300/Ethanol/20 mM Meglumine 40%/10%/50% (final 10 mM), nominal pH 10.0, actual pH 6.9) was 980 µg/mL (≈ 1980 µM), the solubility ([1]; PEG 300/Ethanol/50 mM Meglumine 40%/10%/50% (final 25 mM), nominal pH 8.0, actual pH 5.2) was 160 µg/mL (≈ 324 µM) and the solubility ([1]; PEG 300/Ethanol/50 mM Meglumine 40%/10%/50% (final 25 mM), nominal pH 9.5, actual pH 6.6) was 90 µg/mL (≈ 182 µM). For the same compound, the solubility ([1]; PEG 300/Ethanol/50 mM Meglumine 40%/10%/50% (final 25 mM), nominal pH 10.0, actual pH 7.8) was 360 µg/mL (≈ 729 µM), the solubility ([1]; PEG 300/Ethanol/100 mM Meglumine 40%/10%/50% (final 50 mM), nominal pH 8.0, actual pH 5.3) was 90 µg/mL (≈ 182 µM) and the solubility ([1]; PEG 300/Ethanol/100 mM Meglumine 40%/10%/50% (final 50 mM), nominal pH 8.5, actual pH 5.5) was 100 µg/mL (≈ 202 µM). The solubility ([1]; PEG 300/Ethanol/100 mM Meglumine 40%/10%/50% (final 50 mM), nominal pH 9.0, actual pH 6.2) was 100 µg/mL (≈ 202 µM), the solubility at 24 h ([2]; 0.9% NaCl infusion fluid, pH 7.8, saline or isotonic, 0.9% NaCl 'as is' (pH 5.8), actual pH 7.80) was 150 µg/mL (≈ 304 µM) and the solubility at 24 h ([2]; 0.9% NaCl infusion fluid, saline or isotonic, 0.9% NaCl at pH 4.5, actual pH 7.72) was 80 µg/mL (≈ 162 µM). It also gave a solubility at 24 h ([2]; 0.9% NaCl infusion fluid, saline or isotonic, 0.9% NaCl at pH 7.0, actual pH 7.75) of 120 µg/mL (≈ 243 µM), a solubility at 24 h ([2]; pH 7.9, saline or isotonic, NaCl at pH 7.0 + PEG/EtOH, no buffer (50-fold dilution), actual pH 7.90) of 140 µg/mL and a solubility at 24 h ([2]; saline or isotonic, NaCl at pH 4.5 + PEG/EtOH, no buffer (50-fold dilution), actual pH 7.64) of 100 µg/mL. The solubility at 24 h ([2]; saline or isotonic, NaCl at pH 4.5 + PEG/EtOH/Diethanolamine 10 mM, pH 9.0 (50-fold dilution), actual pH 8.19) was 130 µg/mL.
